This note sets out measurements from patent US8981094B2, “Piperidine/piperazine derivatives” (Janssen Pharmaceutica N.V., priority 2007, dated 2015).

This test deals with T1, human DGAT1 (Homo sapiens, UniProt O75907).
T1 construct: FLAG (N); made in house; host or cells: SF9 insect cells (pFastBac baculovirus); total cell membranes
T1 sequence (O75907 1-488): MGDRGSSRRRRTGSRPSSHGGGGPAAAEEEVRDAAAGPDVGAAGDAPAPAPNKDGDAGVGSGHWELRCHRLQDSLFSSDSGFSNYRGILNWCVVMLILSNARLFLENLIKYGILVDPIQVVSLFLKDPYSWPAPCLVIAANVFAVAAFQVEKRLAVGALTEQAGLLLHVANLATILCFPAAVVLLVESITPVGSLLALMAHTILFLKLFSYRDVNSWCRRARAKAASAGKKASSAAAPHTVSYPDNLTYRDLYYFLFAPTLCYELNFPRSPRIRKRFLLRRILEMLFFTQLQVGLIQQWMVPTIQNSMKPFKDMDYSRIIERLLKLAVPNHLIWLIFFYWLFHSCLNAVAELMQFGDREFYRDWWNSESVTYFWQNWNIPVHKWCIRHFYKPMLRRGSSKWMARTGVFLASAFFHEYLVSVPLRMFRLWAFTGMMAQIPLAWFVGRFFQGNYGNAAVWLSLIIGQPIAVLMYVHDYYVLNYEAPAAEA
Nature of the test: Inhibition of DGAT1 activity, FlashPlate assay with DGAT1 membrane preparations and substrate micelles. In kind it is biochemical. The following applies: pIC50 = -logIC50, IC50 values expressed in M. The source says: A) Measurement of Inhibition of DGAT1 Activity by the Present Compounds
The inhibiting activity of the present compounds on DGAT1 activity was screened in a single well procedure assay using DGAT1 comprising membrane preparations and DGAT1 substrate comprising micelles and determining formed radio-active triacylglycerol coming in close proximity of a flashplate surface by radio luminescence.
Said assay is described in full detail in WO2006/067071, the content of which is incorporated herein by reference.
By DGAT1 activity is meant the transfer of coenzyme A activated fatty acids to the 3-position of 1,2-diacylglycerols, thus forming a triglyceride molecule, by enzyme DGAT1.
human DGAT1 (NM012079.2) was cloned into the pFastBac vector, containing translation start, a FLAG-tag at the N-terminus as described in literature and a viral Kozak sequence (AAX) preceding the ATG to improve expression in insect cells. Expression was done as described in literature (Cases, S., Smith, S. J., Zheng, Y., Myers H. M., Lear, S. R., Sande, E., Novak, S., Collins, C., Welch, C. B., Lusis, A. J., Erickson, S. K. and Farese, R. V. (1998) Proc. Natl. Acad. Sci. USA 95, 13018-13023.) using SF9 cells.
72 h transfected SF9 cells were collected by centrifugation (13000 rpm-15 min-4° C.) and lysed in 2×500 ml lysisbuffer (0.1M Sucrose, 50 mM KCl, 40 mM KH2PO4, 30 mM EDTA pH 7.2. Cells were homogenized by cell disruptor. After centrifugation 1380 rpm-15 min-4° C. (SN discarded), pellet was resuspended in 500 ml lysisbuffer and total cell membranes collected by ultracentrifugation at 34000 rpm(100 000 g) for 60 min (4° C.). The collected membranes were resuspended in lysis buffer, divided in aliquots and stored with 10% glycerol at −80° C. until use.
Add 1 ml dioleoyl-sn-glycerol (10 mg/ml) to 10 ml of L-α-phosphatidylcholine (1 mg/ml) and 10 ml of L-α-phosphatidyl-L-serine (1 mg/ml) in a thick glass recipient. Evaporate under nitrogen and put on ice for 15 minutes. Reconstitute in 10 ml Tris/HCl (10 mM, pH 7.4) by sonication on ice. The sonification process consists of sonification cycles of 10 seconds in the sonification bath followed by 10 seconds cool down on ice and repeating this sonification cycle till a homogeneous solution is obtained (takes about 15 minutes). The thus obtained micelles are stored at −20° C. till later use and contain DAG at a final concentration of 1.61 mM.
c) Substrate mix (for 1 384 well plate=3840 μl) • 612 μl micelles stock (51 μM final) • 16.6 μl oleoylCoA 9.7 mM • 23 μl [^3H]-oleoylCoA (49 Ci/mmol, 500 μCi/ml) • 3188.4 μl Tris pH 7.4, 10 mM
d) Enzyme mix (for 1 384 well plate=3520 μl) (5 μg/ml) • Add 11.73 μl of DGAT membrane stock (1500 μg/ml stock) to 3508 μl assay buffer.
e) Stop mix (for 1 384 well plate=7.68 ml) (250 mM) • Add 384 μl of N-ethylmaleimide (5M) to 3.456 ml DMSO 100%, and further dilute 3.84 ml of said solution with 3.84 ml DMSO 10%.
DGAT activity in membrane preparations was assayed in 50 mM Tris-HCl (pH 7.4), 150 mM MgCl2, 1 mM EDTA and 0.2% BSA, containing 50 μM DAG, 32 μg/ml PC/PS and 8.4 μM [^3H]-oleoylCoA (at a specific activity of 30 nCi/well) in a final volume of 50 μl in 384-well format using the red shifted Basic Image FlashPlate™ (Perkin Elmer Cat.No. SMP400).
In detail, 10 μl enzyme mix and 10 μl substrate mix were added to 30 μl of assay buffer, optionally in the presence of 1 μl DMSO (blank and controls) or 1 μl of the compound to be tested. This reaction mixture was incubated for 120 minutes at 37° C. and the enzymatic reaction stopped by adding 20 μl of the stop mix. The plates were sealed and the vesicles allowed to settle overnight at room temperature. Plates were centrifuged for 5 minutes at 1500 rpm and measured in Leadseeker. […]
With `CC(C)CC(NC(=O)OC(C)(C)C)C(=O)Nc1ccc(C2CCN(C(=O)Nc3c(Cl)cccc3Cl)CC2)cc1` (single isomer, unassigned) [Compound 33], the IC50 was 35.5 nM.

Compound `CC(O)c1cc(Cl)c(NC(=O)N2CCN(c3ccc(NC(=O)CCCc4ccccc4)cc3)CC2)c(Cl)c1` (single isomer, unassigned) [Compound 270] had an IC50 of 2.14 nM.

`CC(O)c1cc(Cl)c(NC(=O)N2CCN(c3ccc(NC(=O)CCCc4ccccc4)cc3)CC2)c(Cl)c1` (single isomer, unassigned) [Compound 271] gave an IC50 of 3.24 nM.

The compound `CC(=O)NC1(C(=O)Nc2ccc(N3CCN(C(=O)Nc4c(Cl)cccc4Cl)CC3)cc2)CCCC1` [Compound 2] had an IC50 of 2880 nM.

`O=C(CCN(Cc1ccccc1Cl)S(=O)(=O)c1ccccc1[N+](=O)[O-])Nc1ccc(N2CCN(C(=O)Nc3c(Cl)cccc3Cl)CC2)cc1` [Compound 6] gave an IC50 of 46.8 nM.

Regarding `CCCCCCC(=O)Nc1ccc(N2CCN(C(=O)N(C)c3c(Cl)cccc3Cl)CC2)cc1` [Compound 10], the 50% inhibitory concentration (IC50) was 1100 nM.

`O=C(CCCc1ccccc1)Nc1ccc(N2CCN(C(=O)Nc3c(Cl)cc(OC(F)(F)F)cc3Cl)CC2)cc1` [Compound 13] showed an IC50 of 29.5 nM.

On to `COc1ccc(CC(=O)Nc2ccc(N3CCN(C(=O)Nc4c(Cl)cc(OC)cc4Cl)CC3)cc2)cc1` [Compound 15], for which inhibition was half-maximal at 4.57 nM (IC50).

In turn, `Cc1ccc(CC(=O)Nc2ccc(N3CCN(S(=O)(=O)c4ccccc4C)CC3)cc2)c(C)c1` [Compound 17] gave an IC50 of 2240 nM.

`C=CCNCC(=O)Nc1ccc(C2CCN(C(=O)Nc3c(Cl)cccc3Cl)CC2)cc1` [Compound 20] gave an IC50 of 575 nM.

`CC(CN)C(=O)Nc1ccc(C2CCN(C(=O)Nc3c(Cl)cccc3Cl)CC2)cc1` (centres unmarked) [Compound 23] showed an IC50 of 2570 nM.

In turn, `O=C(CCCc1ccccc1)Nc1ccc(N2CCN(C(=O)Nc3c(Cl)cc(C(=O)O)cc3Cl)CC2)cc1` [Compound 27] gave an IC50 of 33.9 nM.

Compound `Cc1ccc(CC(=O)Nc2ccc(N3CCN(C(=O)Nc4cccc5ccccc45)CC3)cc2)c(C)c1` [Compound 38] gave an IC50 of 490 nM.

Turning to `CC(C)(C)OC(=O)N1CCCC1CC(=O)Nc1ccc(C2CCN(C(=O)Nc3c(Cl)cccc3Cl)CC2)cc1` (centres unmarked) [Compound 39], the 50% inhibitory concentration (IC50) was 17 nM.

`CN(CC(=O)Nc1ccc(C2CCN(C(=O)Nc3c(Cl)cccc3Cl)CC2)cc1)C(=O)OC(C)(C)C` [Compound 40] gave an IC50 of 7.76 nM.

As for `CC(=O)NCCC(=O)Nc1ccc(N2CCN(C(=O)Nc3c(Cl)cccc3Cl)CC2)cc1` [Compound 44], the IC50 was 5130 nM.

Compound `COC(=O)c1cc(Cl)c(NC(=O)N2CCN(c3ccc(NC(=O)CCCc4ccccc4)cc3)CC2)c(Cl)c1` [Compound 47] gave a half-maximal inhibitory concentration (IC50) of 135 nM.

The compound `O=C(CCCc1ccccc1)Nc1ccc(N2CCN(C(=O)Cc3c(Cl)cccc3Cl)CC2)cc1` [Compound 52] showed an IC50 of 35.5 nM.

The compound `CC(=O)c1cc(Cl)c(NC(=O)N2CCN(c3ccc(NC(=O)CCCc4ccccc4)cc3)CC2)c(Cl)c1` [Compound 53] gave an IC50 of 46.8 nM.

`CC(N)c1cc(Cl)c(NC(=O)N2CCN(c3ccc(NC(=O)CCCc4ccccc4)cc3)CC2)c(Cl)c1` (centres unmarked) [Compound 55] showed an IC50 of 10.2 nM.

As to `CC(NCCCO)c1cc(Cl)c(NC(=O)N2CCN(c3ccc(NC(=O)CCCc4ccccc4)cc3)CC2)c(Cl)c1` (centres unmarked) [Compound 57], inhibition was half-maximal at 10.7 nM (IC50).

`COc1ccc(NC(=O)N2CCN(c3ccc(NC(=O)CCCc4ccccc4)cc3)CC2)c(C)c1` [Compound 65] showed an IC50 of 22.9 nM.

`O=C(CCCc1ccccc1)Nc1ccc(N2CCN(C(=O)Nc3ccccc3C(F)(F)F)CC2)cc1` [Compound 70] gave an IC50 of 138 nM.

Consider `COC(=O)c1cccc(NC(=O)N2CCN(c3ccc(NC(=O)CCCc4ccccc4)cc3)CC2)c1C` [Compound 72], for which the half-inhibitory concentration (IC50) was 490 nM.

Take `COc1ccc(NC(=O)N2CCN(c3ccc(NC(=O)CCCc4ccccc4)cc3)CC2)c([N+](=O)[O-])c1` [Compound 74]: the IC50 is 174 nM.

The compound `COc1ccc(NC(=O)N2CCN(c3ccc(NC(=O)CCCc4ccccc4)cc3)CC2)c(OC)c1` [Compound 75] gave an IC50 of 603 nM.

`COc1ccc(C)cc1NC(=O)N1CCN(c2ccc(NC(=O)CCCc3ccccc3)cc2)CC1` [Compound 76] gave an IC50 of 5620 nM.

Compound `O=C(CCCc1ccccc1)Nc1ccc(N2CCN(C(=O)Nc3ccccc3[N+](=O)[O-])CC2)cc1` [Compound 80] gave an IC50 of 589 nM.

Consider `Cc1cccc(NCC(=O)Nc2ccc(C3CCN(C(=O)Nc4c(Cl)cccc4Cl)CC3)cc2)c1` [Compound 97], for which the IC50 was 49 nM.

Turning to `CC1CN(CC(=O)Nc2ccc(C3CCN(C(=O)Nc4c(Cl)cccc4Cl)CC3)cc2)CC(C)O1` (centres unmarked) [Compound 98], the IC50 is 50.1 nM.

`CCCCCCCN(C)CC(=O)Nc1ccc(C2CCN(C(=O)Nc3c(Cl)cccc3Cl)CC2)cc1` [Compound 99]: the half-inhibitory concentration (IC50) is 25.7 nM.

Take `O=C(CNc1ccccc1)Nc1ccc(C2CCN(C(=O)Nc3c(Cl)cccc3Cl)CC2)cc1` [Compound 100]: the IC50 is 87.1 nM.

With `CCOC(=O)c1ccc(N2CCCN(CC(=O)Nc3ccc(C4CCN(C(=O)Nc5c(Cl)cccc5Cl)CC4)cc3)CC2)cc1` [Compound 101], the IC50 was 138 nM.

Turning to `O=C(CN1CCN(c2cccc(C(F)(F)F)c2)CC1)Nc1ccc(C2CCN(C(=O)Nc3c(Cl)cccc3Cl)CC2)cc1` [Compound 103], the 50% inhibitory concentration (IC50) is 398 nM.

In the case of `Cc1ccc(C)c(N2CCN(CC(=O)Nc3ccc(C4CCN(C(=O)Nc5c(Cl)cccc5Cl)CC4)cc3)CC2)c1` [Compound 104], 126 nM corresponded to half-maximal inhibition (IC50).

Take `Cc1cc(C)cc(N2CCN(CC(=O)Nc3ccc(C4CCN(C(=O)Nc5c(Cl)cccc5Cl)CC4)cc3)CC2)c1` [Compound 105]: the IC50 is 170 nM.

As for `CCc1cccc(N2CCN(CC(=O)Nc3ccc(C4CCN(C(=O)Nc5c(Cl)cccc5Cl)CC4)cc3)CC2)c1` [Compound 106], inhibition was half-maximal at 229 nM (IC50).

Regarding `O=C(CN1CCC(F)(F)CC1)Nc1ccc(C2CCN(C(=O)Nc3c(Cl)cccc3Cl)CC2)cc1` [Compound 107], the IC50 is 182 nM.

In turn, `CC1(C)CCN(CC(=O)Nc2ccc(C3CCN(C(=O)Nc4c(Cl)cccc4Cl)CC3)cc2)CC1` [Compound 108] had an IC50 of 251 nM.

As to `CN(C)CC(=O)Nc1ccc(C2CCN(C(=O)Nc3c(Cl)cccc3Cl)CC2)cc1` [Compound 109], half-maximal inhibition (IC50) required 2340 nM.

Compound `COCCN(C)CC(=O)Nc1ccc(C2CCN(C(=O)Nc3c(Cl)cccc3Cl)CC2)cc1` [Compound 110] showed a 50% inhibitory concentration (IC50) of 1410 nM.

A word on the IC50: it is the midpoint of a concentration-inhibition curve.
